The supplement of paper PMC8960247
± gives the standard error.

tested on: 621-103 (TSC2-rescued); assay: relative viability vs DMSO; higher = less cytotoxic; details: 0.1 µM; serum: 10% FBS; 72 h
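Also: immortalized renal angiomyolipoma cells stably carrying empty vector or TSC2, dosed in 384-well plates in DMEM, viability normalized to vehicle-treated wells within each plate.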

| Compound | relative viability [%] |
| --- | --- |
| CC(C)OC(=O)C1=CN(C(=O)c2ccc(F)c(F)c2)CC(C)(C)c2c1[nH]c1ccccc21 | 99 ± 2.6 |
| CN(C)Cc1cccc(N/C(=C2\C(=O)Nc3cc(C(N)=O)ccc32)c2ccccc2)c1 | 97.28 ± 0.78 |
| CN(C)Cc1cccc(N=C(c2ccccc2)c2c(O)[nH]c3cc(C(=O)N(C)C)ccc23)c1 | 99.48 ± 0.73 |
| CNC(=O)Nc1ccc(-c2nc(N3CC4CCC(C3)O4)c3cnn(C4CCC5(CC4)OCCO5)c3n2)cc1 | 44.1 ± 1.1 |
| COC(=O)N[C@H](C(=O)N1CCC[C@H]1c1ncc(-c2ccc(-c3ccc(-c4cnc([C@@H]5CCCN5C(=O)[C@@H](NC(=O)OC)C(C)C)[nH]4)cc3)cc2)[nH]1)C(C)C | 102 ± 2.3 |
| COc1cc2c(Nc3ccc(NC(=O)c4ccccc4)cc3)ncnc2cc1OCCCN1CCOCC1 | 105 ± 1.6 |
| COc1cc2c(Oc3ccc(NC(=O)C4(C(=O)Nc5ccc(F)cc5)CC4)cc3F)ccnc2cc1OCCCN1CCOCC1 | 91.72 ± 0.35 |
| COc1ccccc1N1CCN(CCN(C(=O)C2CCCCC2)c2ccccn2)CC1 | 110 ± 1.8 |
| C[C@@H]1CCO[C@H]2Cn3cc(C(=O)NCc4ccc(F)cc4F)c(=O)c(O)c3C(=O)N12 | 117 ± 2.9 |
| C[S+]([O-])c1ccc(-c2nc(-c3ccc(F)cc3)c(-c3ccncc3)[nH]2)cc1 (stereo not given) | 99.1 ± 2 |
| Cc1[nH]c(/C=C2\C(=O)Nc3ccc(S(=O)(=O)N(C)c4cccc(Cl)c4)cc32)c(C)c1C(=O)N1CCN(C)CC1 | 99.52 ± 0.97 |
| Cc1[nH]nc2ccc(-c3cncc(OC[C@@H](N)Cc4ccccc4)c3)cc12 | 101 ± 4 |
| Cc1c(NC(=O)OC[C@@H]2COCCN2)cn2ncnc(Nc3ccc4c(cnn4Cc4cccc(F)c4)c3)c12 | 101.3 ± 0.88 |
| Cc1ccc(C(=O)N(CCCN)[C@@H](c2oc3cc(Cl)ccc3c(=O)c2Cc2ccccc2)C(C)C)cc1 | 50.6 ± 1.8 |
| Cc1ccc(NC(=O)c2cccc(N(C)C)c2)cc1NC(=O)c1ccc(O)cc1 | 101 ± 4.5 |
| Cc1cccc(-c2[nH]c(C(C)(C)C)nc2-c2ccc3nccnc3c2)n1 | 95.9 ± 2.7 |
| Cc1cnc(Nc2ccc(N3CCN(C)CC3)cc2)nc1Nc1cccc(S(=O)(=O)NC(C)(C)C)c1 | 97.4 ± 1.1 |
| Cn1c(N2CCCCS2(=O)=O)nc(C(=O)NCc2ccc(F)cc2)c(O)c1=O | 101 ± 2.1 |
| Cn1cc(C2=C(c3ccc(Cl)cc3Cl)C(=O)NC2=O)c2ccccc21 | 92.5 ± 5.7 |
| N#Cc1c(O)c2c(-c3ccc(-c4ccccc4O)cc3)csc2[nH]c1=O | 97.25 ± 0.34 |
| NC(=O)[C@@H](CCC(F)(F)F)N(Cc1ccc(-c2ncon2)cc1F)S(=O)(=O)c1ccc(Cl)cc1 | 103.4 ± 0.95 |
| NC(=O)c1ccc(-c2nc(-c3ccccn3)c(-c3ccc4c(c3)OCO4)[nH]2)cc1 | 98.44 ± 0.36 |
| NC(=O)c1cccc2[nH]c(-c3ccc(C4CCCN4)cc3F)nc12 (stereo not given) | 98.4 ± 4.6 |
| Nc1nccc(Oc2ccc(NC(=O)c3c[nH]cc(-c4ccc(F)cc4)c3=O)cc2F)c1Cl | 104 ± 2 |
| O=C(NC[C@H](O)CO)c1ccncc1Nc1ccc(I)cc1F | 103.5 ± 0.29 |
| O=C1NC(=O)/C(=C/c2ccc(-c3ccc(F)cc3O)o2)S1 | 101 ± 5.6 |
| O=C1NC(=O)/C(=C/c2ccc3c(c2)OC(F)(F)O3)S1 | 95.5 ± 2.7 |
| O=C1NC(=O)/C(=C\c2ccc3nccnc3c2)S1 | 100 ± 1.5 |
| Oc1c2ccccc2c2c3c(cccc13)N=N2 | 100.1 ± 0.67 |
| Oc1ccc(-c2nc(-c3ccc(F)cc3)c(-c3ccncc3)[nH]2)cc1 | 97.7 ± 1.4 |

same assay, conditions: 1 µM; serum: 10% FBS; 72 h

| Compound | relative viability [%] |
| --- | --- |
| CC(C)OC(=O)C1=CN(C(=O)c2ccc(F)c(F)c2)CC(C)(C)c2c1[nH]c1ccccc21 | 94.1 ± 5.9 |
| CN(C)Cc1cccc(N/C(=C2\C(=O)Nc3cc(C(N)=O)ccc32)c2ccccc2)c1 | 92.4 ± 6.5 |
| CN(C)Cc1cccc(N=C(c2ccccc2)c2c(O)[nH]c3cc(C(=O)N(C)C)ccc23)c1 | 91.7 ± 5.7 |
| CNC(=O)Nc1ccc(-c2nc(N3CC4CCC(C3)O4)c3cnn(C4CCC5(CC4)OCCO5)c3n2)cc1 | 34.1 ± 0.59 |
| COC(=O)N[C@H](C(=O)N1CCC[C@H]1c1ncc(-c2ccc(-c3ccc(-c4cnc([C@@H]5CCCN5C(=O)[C@@H](NC(=O)OC)C(C)C)[nH]4)cc3)cc2)[nH]1)C(C)C | 99.4 ± 2.4 |
| COc1cc2c(Nc3ccc(NC(=O)c4ccccc4)cc3)ncnc2cc1OCCCN1CCOCC1 | 95.8 ± 2.5 |
| COc1cc2c(Oc3ccc(NC(=O)C4(C(=O)Nc5ccc(F)cc5)CC4)cc3F)ccnc2cc1OCCCN1CCOCC1 | 69.1 ± 1.5 |
| COc1ccccc1N1CCN(CCN(C(=O)C2CCCCC2)c2ccccn2)CC1 | 108 ± 1.8 |
| C[C@@H]1CCO[C@H]2Cn3cc(C(=O)NCc4ccc(F)cc4F)c(=O)c(O)c3C(=O)N12 | 112 ± 4 |
| C[S+]([O-])c1ccc(-c2nc(-c3ccc(F)cc3)c(-c3ccncc3)[nH]2)cc1 (stereo not given) | 100 ± 1.8 |
| Cc1[nH]c(/C=C2\C(=O)Nc3ccc(S(=O)(=O)N(C)c4cccc(Cl)c4)cc32)c(C)c1C(=O)N1CCN(C)CC1 | 101.8 ± 0.38 |
| Cc1[nH]nc2ccc(-c3cncc(OC[C@@H](N)Cc4ccccc4)c3)cc12 | 62.2 ± 1 |
| Cc1c(NC(=O)OC[C@@H]2COCCN2)cn2ncnc(Nc3ccc4c(cnn4Cc4cccc(F)c4)c3)c12 | 101 ± 1.9 |
| Cc1ccc(C(=O)N(CCCN)[C@@H](c2oc3cc(Cl)ccc3c(=O)c2Cc2ccccc2)C(C)C)cc1 | 47.3 ± 5.6 |
| Cc1ccc(NC(=O)c2cccc(N(C)C)c2)cc1NC(=O)c1ccc(O)cc1 | 94.6 ± 5 |
